ChEMBL document CHEMBL4145513, “An overview on crystal structures of InhA protein: Apo-form, in complex with its natural ligands and inhibitors” (Eur J Med Chem, 2018)

Key:
[1] = target: T1, Enoyl-[acyl-carrier-protein] reductase [NADH] (Mycobacterium tuberculosis, UniProt P9WGR1, V203A)
[2] = target: T1, Enoyl-[acyl-carrier-protein] reductase [NADH]; remark: listed apart in the source
[3] = target: Enoyl-[acyl-carrier-protein] reductase [NADH] (Mycobacterium tuberculosis, UniProt P9WGR1, I215A); test: biochemical
[4] = target: Enoyl-[acyl-carrier-protein] reductase [NADH] (Mycobacterium tuberculosis, UniProt P9WGR1, T2A); test: Inhibition of Mycobacterium tuberculosis InhA T2A mutant
[5] = target: Enoyl-[acyl-carrier-protein] reductase [NADH] (Mycobacterium tuberculosis, UniProt P9WGR1, D2A); test: Inhibition of Mycobacterium tuberculosis InhA D2A mutant
[6] = target: T2, Enoyl-[acyl-carrier-protein] reductase [NADH] (Mycobacterium tuberculosis, UniProt P9WGR1, S94A); test: Inhibition of Mycobacterium tuberculosis InhA S94A mutant using trans-2-decenoyl-CoA as substrate by spectrophotometric analysis
[7] = target: T2, Enoyl-[acyl-carrier-protein] reductase [NADH]; test: Inhibition of Mycobacterium tuberculosis InhA S94A mutant
[8] = tested on: Mycobacterium tuberculosis; test: Antimycobacterial activity against Mycobacterium tuberculosis harboring InhA T2A mutant; assay type: functional
[9] = target: Enoyl-[acyl-carrier-protein] reductase [NADH] (Mycobacterium tuberculosis, UniProt P9WGR1, I21V); test: Inhibition of Mycobacterium tuberculosis InhA I21V mutant using trans-2-decenoyl-CoA as substrate by spectrophotometric analysis

Structure (SMILES)	Ki [1] [nM]	Ki [2] [nM]	Ki [3] [nM]	IC50 [4] [nM]	Ki [4] [nM]	IC50 [5] [nM]	Ki [5] [nM]	Ki [6] [nM]	IC50 [7] [nM]	Ki [7] [nM]	MIC50 [8] [µM]	Ki [9] [nM]
CCCCCCc1ccc(Oc2ccccc2C)c(O)c1	913	427	114	–	–	–	–	–	–	–	–	–
NC(=O)c1c[n+]([C@@H]2O[C@H](COP(=O)(O)OP(=O)(O)OC[C@H]3O[C@@H](n4cnc5c(N)ncnc54)[C@H](O)[C@@H]3O)[C@@H](O)[C@H]2O)ccc1C(=O)c1ccncc1	–	–	–	19	5	323	172	5.3	323	172	1.8	2.1
